Experimental data reported in ChEMBL document CHEMBL3137667, “[Drug-induced liver injury; fourteenth updated edition of the bibliographic database of liver injuries and related drugs]” (Gastroenterol Clin Biol, 2004).

Experiments:
[1] = Highest frequency of moderate liver toxicity observed during clinical trials, expressed as a percentage. [column '% BIOL' in source]; details: human
[2] = Highest frequency of acute liver toxicity observed during clinical trials, expressed as a percentage. [column '% AIGUE' in source]; details: human
[3] = human, serum
[4] = human, serum; remark: listed apart in the source
[5] = human
[6] = human; remark: listed apart in the source
[7] = human; remark: listed apart in the source
[8] = human, serum, 4383 h
[9] = human; remark: listed apart in the source
[10] = human; remark: listed apart in the source
[11] = human; remark: listed apart in the source
[12] = human; remark: listed apart in the source
[13] = human; remark: listed apart in the source
[14] = human; remark: listed apart in the source
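For Hepatotoxicity (association with vascular disease) in this document: count of indexed literature references reporting vascular liver injury in humans, e.g. peliosis hepatitis, hepatic veno-occlusive disease or Budd-Chiari syndrome.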
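For Hepatotoxicity (benign tumour) in this document: value is a count of indexed literature references citing a benign tumour confirmed by histopathology.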
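For Hepatotoxicity (choleostasis) in this document: human cholestatic liver injury, shown by histopathology or by peak ALT or AST elevation over alkaline phosphatase ratio below 2, value counts indexed literature reports.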
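For Hepatotoxicity (chronic liver disease) in this document: chronic liver injury confirmed by histopathology or persistently raised serum aminotransferase activity beyond 6 months, value given as the count of indexed literature references.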
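For Hepatotoxicity (cirrhosis) in this document: value is a count of indexed literature references reporting cirrhosis confirmed by histopathology.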
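For Hepatotoxicity (cytolytic) in this document: human cytolytic liver injury, shown by histopathology or by a ratio above 5 of peak ALT or AST elevation to alkaline phosphatase elevation, value counts indexed references.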
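For Hepatotoxicity (granulomatous hepatitis) in this document: value is a count of indexed literature references reporting granulomatous liver disease confirmed by histopathology.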
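For Hepatotoxicity (malignant tumour) in this document: malignant tumour confirmed by histopathology, value gives the count of indexed literature references reporting it.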
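For Hepatotoxicity (severe hepatitis) in this document: human clinical data: severe hepatitis, meaning potentially life-threatening liver failure or clinically observed cases, the value counts how many indexed literature references report it.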
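For Hepatotoxicity (steatosis) in this document: steatosis confirmed by histopathology, value is the count of indexed references.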

SMILES | Hepatotoxicity (moderate) [1] [%] | Hepatotoxicity (acute) [2] [%] | Hepatotoxicity (moderate) [3] | Hepatotoxicity (acute) [4] | Hepatotoxicity (cytolytic) [5] | Hepatotoxicity (choleostasis) [6] | Hepatotoxicity (severe hepatitis) [7] | Hepatotoxicity (chronic liver disease) [8] | Hepatotoxicity (cirrhosis) [9] | Hepatotoxicity (granulomatous hepatitis) [10] | Hepatotoxicity (association with vascular disease) [11] | Hepatotoxicity (steatosis) [12] | Hepatotoxicity (malignant tumour) [13] | Hepatotoxicity (benign tumour) [14] | Hepatotoxicity (moderate) ([1]; Liver) [%] | Hepatotoxicity (acute) ([2]; Liver) [%] | Hepatotoxicity (severe hepatitis) ([7]; Liver)
CCN1CCC[C@H]1CNC(=O)c1c(OC)ccc(Br)c1OC [REMOXIPRIDE] | 6.4 | 0 | 7 | 0 | 0 | 0 | 0 | 0 | 0 | 0 | 0 | 0 | 0 | 0 | – | – | –
CCOc1cc(CC(=O)N[C@@H](CC(C)C)c2ccccc2N2CCCCC2)ccc1C(=O)O [REPAGLINIDE] | – | – | 1 | 0 | 0 | 0 | – | 0 | 0 | 0 | 0 | 0 | 0 | 0 | 1.5 | 0 | 0
CO[C@@H](/C(C)=C/C=C/C(C)=C/c1coc(C)n1)[C@@H](C)[C@@H]1C[C@H](O)[C@@]2(C)O[C@@H]2/C=C/[C@@H](C)[C@H]2C[C@H](CC(=O)O2)C[C@@H]2O[C@H]2C(=O)O1 [RHIZOXIN] | 7.3 | 0 | 1 | 0 | 0 | 0 | 0 | 0 | 0 | 0 | 0 | 0 | 0 | 0 | – | – | –
CO[C@H]1/C=C/O[C@@]2(C)Oc3c(C)c(O)c4c(O)c(c5c(nc6cc(C)ccn65)c4c3C2=O)NC(=O)/C(C)=C\C=C\[C@H](C)[C@H](O)[C@@H](C)[C@@H](O)[C@@H](C)[C@H](OC(C)=O)[C@@H]1C [RIFAXIMIN] | 26.7 | 0 | 27 | 0 | 0 | 0 | 0 | 0 | 0 | 0 | 0 | 0 | 0 | 0 | – | – | –
CC(N)C12CC3CC(CC(C3)C1)C2 (stereo not given) [RIMANTADINE] | 1.8 | 0 | 1 | 0 | 0 | 0 | 0 | 0 | 0 | 0 | 0 | 0 | 0 | 0 | – | – | –
CCCCC(C)(O)C/C=C/[C@H]1[C@H](O)CC(=O)[C@@H]1CCCCCCCO (stereo not given in full) [RIOPROSTIL] | 10 | 0 | 1 | 0 | 0 | 0 | 0 | 0 | 0 | 0 | 0 | 0 | 0 | 0 | – | – | –
CCCC(=O)O[C@H]1[C@H](C)O[C@@H](O[C@H]2[C@H](N(C)C)[C@@H](O)[C@H](O[C@H]3[C@@H](CC=O)C[C@@H](C)[C@@H](O)/C=C/C=C/C[C@@H](C)OC(=O)C[C@@H](O)[C@@H]3OC)O[C@@H]2C)C[C@@]1(C)OC(=O)CC [ROKITAMYCIN] | 5 | 0 | 4 | 0 | 0 | 0 | 0 | 0 | 0 | 0 | 0 | 0 | 0 | 0 | – | – | –
CC(C)c1nc(N(C)S(C)(=O)=O)nc(-c2ccc(F)cc2)c1/C=C/[C@@H](O)C[C@@H](O)CC(=O)O [ROSUVASTATIN] | 0 | 0.1 | 0 | 1 | 1 | 0 | 0 | 0 | 0 | 0 | 0 | 0 | 0 | 0 | – | – | –
Oc1ccc2[nH]cc(CCCCN3CC=C(c4ccccc4)CC3)c2c1 [ROXINDOLE] | 10 | 0 | 1 | 0 | 0 | 0 | 0 | 0 | 0 | 0 | 0 | 0 | 0 | 0 | – | – | –
OCc1cc(C(O)CNCCCCCCOCCCCc2ccccc2)ccc1O (stereo not given) [SALMETEROL] | 1.8 | 0 | 1 | 0 | 0 | 0 | 0 | 0 | 0 | 0 | 0 | 0 | 0 | 0 | – | – | –
O=C1NCCN1CCN1CCC(c2cn(-c3ccc(F)cc3)c3ccc(Cl)cc23)CC1 [SERTINDOLE] | 1.4 | 0 | 1 | 0 | 0 | 0 | 0 | 0 | 0 | 0 | 0 | 0 | 0 | 0 | – | – | –
CN[C@@H]1[C@@H](O)[C@@H](O[C@@H]2[C@@H](O)[C@H](O[C@H]3OC(CN)=CC[C@H]3N)[C@@H](N)C[C@H]2N)OC[C@]1(C)O [SISOMICIN] | 5.7 | 0 | 2 | 0 | 0 | 0 | 0 | 0 | 0 | 0 | 0 | 0 | 0 | 0 | – | – | –
N[C@@H]1CN(c2c(F)cc3c(=O)c(C(=O)O)cn([C@@H]4C[C@@H]4F)c3c2Cl)CC12CC2 [SITAFLOXACIN ANHYDROUS] | 23.2 | 0 | 6 | 0 | 0 | 0 | 0 | 0 | 0 | 0 | 0 | 0 | 0 | 0 | – | – | –
Cc1cc2c(cc1CC(=O)c1sccc1S(=O)(=O)Nc1onc(C)c1Cl)OCO2 [SITAXENTAN] | 0 | 0 | 1 | 0 | 0 | 0 | 0 | 0 | 0 | 0 | 0 | 0 | 0 | 0 | – | – | –
O=c1[nH]c(=O)n([C@@H]2O[C@H](CO)[C@@H](O)[C@@H]2O)cc1/C=C/Br [SORIVUDINE] | 2 | 0 | 1 | 0 | 0 | 0 | 0 | 0 | 0 | 0 | 0 | 0 | 0 | 0 | – | – | –
